Assay results published in US20090047243A1, “COMBINATIONS FOR THE TREATMENT OF B-CELL PROLIFERATIVE DISORDERS” (priority 2007, published 2009).

Experiments:
Assay in all cases: Anti-proliferation assay (ATPLite, 72 h)
[1] = test system: human multiple myeloma cells (MM.1S); format: cell-based; set-up: key to synergy score / synergy (score), PDEi × HE-NECA: S = lnfX·lnfY·ΣIdata(Idata−ILoewe), volume over Loewe additivity
Method: (§1) ANBL6 and INA-6 culture media was also supplemented with 10 ng/ml IL-6. […] MM.1S, MM.1R, OCI-ly10, Karpas 422, and SU-DHL6 cells were provided by the Dana Farber Cancer Institute. H929, RPMI-8226, GA-10, and Farage cells were from ATCC (Cat #'s CCL-155, CRL-9068, CRL-2392 and CRL-2630 respectively). MOLP-8, EJM, KSM-12-PE, and OPM2 were from DSMZ. The ANBL6 and INA-6 cell lines were provided by the M. D. Anderson Cancer Research Center. Compounds were prepared in DMSO at 1000× the highest desired concentration. Master plates were generated consisting of serially diluted compounds in 2- or 3-fold dilutions in 384-well format. For single agent dose response curves, the master plates consisted of 9 individual compounds at 12 concentrations in 2- or 3-fold dilutions. For combination matrices, master plates consisted of individual compounds at 6 or 9 concentrations at 2- or 3-fold dilutions. […] To obtain combination data, two master plates were diluted into the assay plates. […] Thirty microliters of ATPLite (Perkin Elmer) at room temperature was then added to each well. […] Measurements were taken at the top of the well using a luminescence aperture and a read time of 0.1 seconds per well. The percent inhibition (% I) for each well was calculated using the following formula: % I=[(avg. untreated wells-treated well)/(avg. untreated wells)]×100. […] Negative inhibition values result from local variations in treated wells as compared to untreated wells. […] The uncertainty of each fitted parameter was estimated from the range over which the change in reduced chi-squared was less than one, or less than minimum reduced chi-squared if that minimum exceeded one, to allow for underestimated σI errors. Single agent curve data were used to define a dilution series for each compound to be used for combination screening in a 6×6 matrix format. […] The Loewe additivity model was used to quantify combination effects. […] A “Synergy Score” was also used, where the Synergy Score S=log fX log fY ΣIdata(Idata-ILoewe), summed over all non-single-agent concentration pairs, and where log fX,Y is the natural logarithm of the dilution factors used for each single agent. This effectively calculates a volume between the measured and Loewe additive response surfaces, weighted towards high inhibition and corrected for varying dilution factors. An uncertainty σS was calculated for each synergy score, based on the measured errors for the Idata values and standard error propagation.

[2] = test system: human multiple myeloma cells (MM.1R); format: cell-based; set-up: key: S = lnfX·lnfY·ΣIdata(Idata−ILoewe), volume over Loewe additivity
Method: as §1

[3] = test system: RPMI-8226 multiple myeloma cell line; format: cell-based, human; set-up: key: S = lnfX·lnfY·ΣIdata(Idata−ILoewe), volume over Loewe additivity
Method: as §1

[4] = test system: H929 multiple myeloma cell line; format: cell-based, human; set-up: key: S = lnfX·lnfY·ΣIdata(Idata−ILoewe), volume over Loewe additivity
Method: as §1

[5] = PDE inhibitor crossed with (S) ENBA, H929
[6] = PDE inhibitor crossed with ADAC, H929
[7] = PDE inhibitor crossed with Chloro-IB-MECA, H929
[8] = PDE inhibitor crossed with HE-NECA, H929
[9] = PDE inhibitor crossed with (S) ENBA, MM.1S
[10] = PDE inhibitor crossed with ADAC, MM.1S
[11] = PDE inhibitor crossed with Chloro-IB-MECA, MM.1S
[12] = PDE inhibitor crossed with HE-NECA, MM.1S
[13] = MM.1S, compared among four adenosine receptor antagonists

COc1cc2c(cc1OC)-c1cc(=Nc3c(C)cc(C)cc3C)n(C)c(=O)n1CC2.NCCNC(=O)Cc1ccc(NC(=O)Cc2ccc(Nc3ncnc4c3ncn4[C@@H]3O[C@H](CO)[C@@H](O)[C@H]3O)cc2)cc1 [ADAC + Trequinsin]
percent inhibition of ATP in MM.1S cells ([1]; 10 ng/mL IL-6, ADAC 1.17 μM, Trequinsin conc. (μM)): 94% | percent inhibition of ATP in MM.1S cells ([1]; 10 ng/mL IL-6, ADAC 3.51 μM, Trequinsin conc. (μM)): 93% | percent inhibition of ATP in MM.1S cells ([1]; 10 ng/mL IL-6, ADAC 10.5 μM, Trequinsin conc. (μM)): 93% | percent inhibition of ATP in MM.1S cells ([1]; 10 ng/mL IL-6, ADAC 31.6 μM, Trequinsin conc. (μM)): 93% | percent inhibition of ATP in MM.1S cells ([1]; 10 ng/mL IL-6, ADAC […], Trequinsin conc. (μM)): 95%

CNC(=O)[C@H]1O[C@@H](n2cnc3c(NCc4cccc(I)c4)nc(Cl)nc32)[C@H](O)[C@@H]1O.COc1cc2c(cc1OC)-c1cc(=Nc3c(C)cc(C)cc3C)n(C)c(=O)n1CC2 [CI-IB-MECA + Trequinsin]
percent inhibition of ATP in MM.1S cells ([1]; after addition of 174 nM DPCPX, CI-IB-MECA 2.96 μM, Trequinsin conc. (μM)): 94% | percent inhibition of ATP in MM.1S cells ([1]; no adenosine receptor antagonist added, CI-IB-MECA 1.48 μM, Trequinsin conc. (μM)): 93%

CNC(=O)[C@H]1O[C@@H](n2cnc3c(NCc4cccc(I)c4)nc(Cl)nc32)[C@H](O)[C@@H]1O.COc1cc2c(cc1OC)-c1cc(=Nc3c(C)cc(C)cc3C)n(C)c(=O)n1CC2 [Cl-IB-MECA + Trequinsin]
percent inhibition of ATP in MM.1S cells ([1]; after addition of 170 nM MRS 1523, Cl-IB-MECA 2.96 μM, Trequinsin conc. (μM)): 93%

CCCn1c(=O)c2[nH]c(C3CCCC3)nc2n(CCC)c1=O [DPCPX, 8-cyclopentyl-1,3-dipropylxanthine]
inhibition at 0.174 µM ([1]; Homo sapiens, MM1.S, after addition of 174 nM DPCPX, CI-IB-MECA 0 μM, Trequinsin conc. (μM), read-out: Percent inhibition of ATP in MM.1S cells): -7.5%

OCCN(CCO)c1nc(N2CCCCC2)c2nc(N(CCO)CCO)nc(N3CCCCC3)c2n1 [Dipyridamole, 2-{[9-(bis(2-hydroxyethyl)amino)-2,7-bis(1-piperidyl)-3,5,8,10-tetrazabicyclo[4.4.0]deca-2,4,7,9,11-pentaen-4-yl]-(2-hydroxyethyl)amino}ethanol]
synergy score ([2]; in combination with adenosine receptor agonist ADAC, MM.1R): 1.34 | synergy score ([3]; in combination with adenosine receptor agonist ADAC, RPMI-8226): 0.62 | synergy score [4, 5]: 0.26 | synergy score [4, 6]: 2.05 | synergy score [4, 7]: 0.08 | synergy score [4, 8]: 0.13 | synergy score ([4]; in combination with adenosine receptor agonist ADAC, H929): 2.05 | synergy score [1, 9]: 0.17 | synergy score [1, 10]: 1.18 | synergy score [1, 11]: 0.20 | synergy score [1, 12]: 0.08 | synergy score ([1]; in combination with adenosine receptor agonist ADAC, MM.1S): 1.18

CCCCC#Cc1nc(N)c2ncn([C@@H]3O[C@H](C(=O)NCC)[C@@H](O)[C@H]3O)c2n1.COc1ccc(Cc2nccc3cc(OC)c(OC)cc23)cc1OC [HE-NECA + Papaverine]
percent inhibition of ATP in MM.1S cells ([1]; 10 ng/mL IL-6, Papaverine 20.7 μM, HE-NECA conc. (μM)): 97% | percent inhibition of ATP in MM.1S cells ([1]; no IL-6, Papaverine 20.7 μM, HE-NECA conc. (nM)): 95%

CCCCC#Cc1nc(N)c2ncn([C@@H]3O[C@H](C(=O)NCC)[C@@H](O)[C@H]3O)c2n1.COc1cc2c(cc1OC)-c1cc(=Nc3c(C)cc(C)cc3C)n(C)c(=O)n1CC2 [HE-NECA + Trequinsin]
percent inhibition of ATP in MM.1S cells ([1]; 10 ng/mL IL-6, Trequinsin 3.39 μM, HE-NECA conc. (nM)): 94% | percent inhibition of ATP in MM.1S cells ([1]; 10 ng/mL IL-6, Trequinsin 30.5 μM, HE-NECA conc. (nM)): 100% | percent inhibition of ATP in MM.1S cells ([1]; no IL-6, Trequinsin 30.5 (unit not given), HE-NECA conc. (nM)): 98%

CC(C)C(=O)c1c(C(C)C)nn2ccccc12 [Ibudilast, 1-(2-isopropyl-pyrazolo[1,5-a]pyridine-3-yl)-2-methylpropan-1-one]
synergy score ([2]; in combination with adenosine receptor agonist CGS-21680, MM.1R): 2.29 | synergy score ([2]; in combination with adenosine receptor agonist regadenoson, MM.1R): 1 | synergy score ([3]; in combination with adenosine receptor agonist CGS-21680, RPMI 8226): 0.47 | synergy score ([3]; in combination with adenosine receptor agonist regadenoson, RPMI 8226): 0.29 | synergy score [4, 5]: 0.21 | synergy score [4, 6]: 1.04 | synergy score [4, 7]: 0.32 | synergy score [4, 8]: 0.32 | synergy score ([4]; in combination with adenosine receptor agonist CGS-21680, H929): 1.76 | synergy score ([4]; in combination with adenosine receptor agonist regadenoson, H929): 1.08 | synergy score [1, 9]: 0.55 | synergy score [1, 10]: 0.23 | synergy score [1, 11]: 0.74 | synergy score [1, 12]: 0.98 | synergy score ([1]; in combination with adenosine receptor agonist CGS-21680, MM.1S): 2.22 | synergy score ([1]; in combination with adenosine receptor agonist regadenoson, MM.1S): 0.37

CCCn1c(=O)c2[nH]c(-c3ccc(OCC(=O)Nc4ccc(C#N)cc4)cc3)nc2n(CCC)c1=O [MRS 1574]
inhibition at 0.175 µM ([1]; Homo sapiens, MM1.S, after addition of 175 nM MRS 1754, Cl-IB-MECA 0 μM, Trequinsin conc. (μM), read-out: Percent inhibition of ATP in MM.1S cells): -13%

Nc1nc2c(cnn2CCc2ccccc2)c2nc(-c3ccco3)nn12 [SCH 58261]
blocking of chloro-IB-MECA antiproliferative activity ([1]; MM.1S, 72 h, antagonist SCH 58261 at 78 nM): > 50% | antagonist effect on (S)-ENBA inhibition of cell growth ([1]; MM.1S, 72 h, SCH 58261 78 nM, MRS 1523 183 nM, DPCPX 178 nM, MRS 1574 175 nM): most active of the antagonists | blocking of chloro-IB-MECA antiproliferative activity ([1]; MM.1S, antagonist concentration increased 2-fold): > 70% | antagonist effect on chloro-IB-MECA crossed with trequinsin [1, 13]: most active compound | antagonist effect on synergy of (S)-ENBA crossed with trequinsin [1, 13]: most active compound

CCCc1nn(C)c2c(=O)[nH]c(-c3cc(S(=O)(=O)N4CCN(C)CC4)ccc3OCC)nc12 [Sildenafil]
synergy score [4, 5]: 0.03 | synergy score [4, 6]: 0.14 | synergy score [4, 7]: 0.03 | synergy score [4, 8]: 0 | synergy score [1, 9]: 0 | synergy score [1, 10]: 0 | synergy score [1, 11]: 0 | synergy score [1, 12]: 0

CCCOc1ccccc1-c1nc2nn[nH]c2c(=O)[nH]1 [Zaprinast]
synergy score [4, 5]: 0.05 | synergy score [4, 7]: 0.03 | synergy score [4, 8]: 0.13 | synergy score [1, 9]: 0.16 | synergy score [1, 11]: 0.05 | synergy score [1, 12]: 0.025

C[C@@H]1C[C@H]2[C@@H]3CCC4=CC(=O)C=C[C@]4(C)[C@@]3(F)[C@@H](O)C[C@]2(C)[C@@]1(O)C(=O)CO [dexamethasone]
IC50 ([1]; Homo sapiens, MM1.S, 72 h, MM.1S, 72 h, +IL-6 (10 ng/ml)): 0.0617 µM | IC50 ([1]; Homo sapiens, MM1.S, 72 h, MM.1S, no IL-6): 0.179 µM | change in IC50 when cultured in the presence of IL-6 ([1]; MM.1S, 10 ng/ml IL-6 vs no IL-6): 2.9 fold
